In patent publication US8008303B2, “Biphenyl derivatives and their use in treating hepatitis C” (AstraZeneca AB, priority 2005, dated 2011):

Experiments:
[1] = system: HCV replicon cells Huh 9B; test: HCV replicon assay (luciferase readout); assay type: cell-based; conditions: Hepatitis C virus, 72 h, concentration reducing replicon level (luciferase activity) by 50% vs untreated cell control; 72 h incubation
Outline: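 Compounds, made up at twice final strength (final DMSO 1%), were added to subgenomic replicon cells one day after plating. Incubation then ran 72 h at 37 °C, 5% CO2, without G418. Replication was quantified as firefly luciferase luminescence in lysed cells, with cytotoxicity assessed on a duplicate clear plate.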

[2] = system: HCV replicon cells Huh 9B; assay type: cell-based; conditions: concentration reducing total cell area by 50% relative to DMSO controls; methylene blue, absorbance 620 nm; 72 h incubation

Compound	IC50 [1] [µM]	TD50 [2]
Cc1ccc(NC(=O)N2CCOCC2)cc1-c1ccc(C(=O)Nc2ccc(CN3CCS(=O)(=O)CC3)cc2)cc1 [Example 152, Morpholine-4-carboxylic acid {4′-[4-(1,1-dioxo-1lambda*6*-thiomorpholin-4-ylmethyl)-phenylcarbamoyl]-6-methyl-biphenyl-3-yl}-amide]	< 1	** (** > 50 μM)
Cc1ccc(NC(=O)c2ccco2)cc1-c1ccc(C(=O)Nc2ccc(CN3CCS(=O)(=O)CC3)cc2)cc1 [Example 153, Furan-2-carboxylic acid {4′-[4-(1,1-dioxo-1lambda*6*-thiomorpholin-4-ylmethyl)-phenylcarbamoyl]-6-methyl-biphenyl-3-yl}-amide]	< 1	* (* < 50 μM)
Cc1ccc(NC(=O)c2ccc(Br)cc2)cc1-c1ccc(C(=O)Nc2ccc(CN3CCS(=O)(=O)CC3)cc2)cc1 [Example 154, 5′-(4-Bromo-benzoylamino)-2′-methyl-biphenyl-4-carboxylic acid [4-(1,1-dioxo-1lambda*6*-thiomorpholin-4-ylmethyl)-phenyl]-amide]	< 1	* (* < 50 μM)
Cc1ccc(NC(=O)c2cccs2)cc1-c1ccc(C(=O)Nc2ccc(CN3CCS(=O)(=O)CC3)cc2)cc1 [Example 155, Thiophene-2-carboxylic acid {4′-[4-(1,1-dioxo-1lambda*6*-thiomorpholin-4-ylmethyl)-phenylcarbamoyl]-6-methyl-biphenyl-3-yl}-amide]	< 1	* (* < 50 μM)
Cc1ccc(NC(=O)c2cccnc2)cc1-c1ccc(C(=O)Nc2ccc(CN3CCS(=O)(=O)CC3)cc2)cc1 [Example 156, N-{4′-[4-(1,1-Dioxo-1lambda*6*-thiomorpholin-4-ylmethyl)-phenylcarbamoyl]-6-methyl-biphenyl-3-yl}-nicotinamide]	1 to 5	* (* < 50 μM)
Cc1ccc(NC(=O)c2cccn2C)cc1-c1ccc(C(=O)Nc2ccc(CN3CCS(=O)(=O)CC3)cc2)cc1 [Example 157, 1-Methyl-1H-pyrrole-2-carboxylic acid {4′-[4-(1,1-dioxo-1lambda*6*-thiomorpholin-4-ylmethyl)-phenylcarbamoyl]-6-methyl-biphenyl-3-yl}-amide]	< 1	* (* < 50 μM)
Cc1ccc(NC(=O)C2CCCCC2)cc1-c1ccc(C(=O)Nc2ccc(CN3CCS(=O)(=O)CC3)cc2)cc1 [Example 158, 5′-(Cyclohexanecarbonyl-amino)-2′-methyl-biphenyl-4-carboxylic acid [4-(1,1-dioxo-1lambda*6*-thiomorpholin-4-ylmethyl)-phenyl]-amide]	< 1	* (* < 50 μM)
Cc1ccc(NC(=O)c2ccc(F)cc2)cc1-c1ccc(C(=O)Nc2ccc(CN3CCS(=O)(=O)CC3)cc2)cc1 [Example 159, 5′-(4-Fluoro-benzoylamino)-2′-methyl-biphenyl-4-carboxylic acid [4-(1,1-dioxo-1lambda*6*-thiomorpholin-4-ylmethyl)-phenyl]-amide]	< 1	* (* < 50 μM)
Cc1ccc(C(=O)Nc2ccc(C)c(-c3ccc(C(=O)Nc4ccc(CN5CCS(=O)(=O)CC5)cc4)cc3)c2)cc1 [Example 160, 2′-Methyl-5′-(4-methyl-benzoylamino)-biphenyl-4-carboxylic acid [4-(1,1-dioxo-1lambda*6*-thiomorpholin-4-ylmethyl)-phenyl]-amide]	< 1	* (* < 50 μM)
Cc1ccc(NC(=O)c2ccc(CN3CCS(=O)(=O)CC3)cc2)cc1-c1ccc(C(=O)Nc2ccc(CN3CCS(=O)(=O)CC3)cc2)cc1 [Example 161, 5′-[4-(1,1-Dioxo-1lambda*6*-thiomorpholin-4-ylmethyl)-benzoylamino]-2′-methyl-biphenyl-4-carboxylic acid [4-(1,1-dioxo-1lambda*6*-thiomorpholin-4-ylmethyl)-phenyl]-amide]	1 to 5	* (* < 50 μM)
Cc1ccc(NC(=O)c2ccc(CN3CCS(=O)(=O)CC3)cc2)cc1-c1ccc(C(=O)NCc2cccc(Cl)c2)cc1 [Example 162, 5′-[4-(1,1-Dioxo-1lambda*6*-thiomorpholin-4-ylmethyl)-benzoylamino]-2′-methyl-biphenyl-4-carboxylic acid 3-chloro-benzylamide]	1 to 5	* (* < 50 μM)
Cc1ccc(NC(=O)CCC2CCCCC2)cc1-c1ccc(C(=O)Nc2ccc(CN3CCS(=O)(=O)CC3)cc2)cc1 [Example 163, 5′-(3-Cyclohexyl-propionylamino)-2′-methyl-biphenyl-4-carboxylic acid [4-(1,1-dioxo-1lambda*6*-thiomorpholin-4-ylmethyl)-phenyl]-amide]	< 1	* (* < 50 μM)
Cc1ccc(NC(=O)C2CCCCCC2)cc1-c1ccc(C(=O)Nc2ccc(CN3CCS(=O)(=O)CC3)cc2)cc1 [Example 164, 5′-(Cycloheptanecarbonyl-amino)-2′-methyl-biphenyl-4-carboxylic acid [4-(1,1-dioxo-1lambda*6*-thiomorpholin-4-ylmethyl)-phenyl]-amide]	< 1	* (* < 50 μM)
Cc1ccc(NC(=O)CC2CCCCC2)cc1-c1ccc(C(=O)Nc2ccc(CN3CCS(=O)(=O)CC3)cc2)cc1 [Example 165, 5′-(2-Cyclohexyl-acetylamino)-2′-methyl-biphenyl-4-carboxylic acid [4-(1,1-dioxo-1lambda*6*-thiomorpholin-4-ylmethyl)-phenyl]-amide]	< 1	* (* < 50 μM)
Cc1ccc(NC(=O)CC2CCCC2)cc1-c1ccc(C(=O)Nc2ccc(CN3CCS(=O)(=O)CC3)cc2)cc1 [Example 166, 5′-(2-Cyclopentyl-acetylamino)-2′-methyl-biphenyl-4-carboxylic acid [4-(1,1-dioxo-1lambda*6*-thiomorpholin-4-ylmethyl)-phenyl]-amide]	< 1	* (* < 50 μM)
Cc1ccc(NC(=O)C2CCCC2)cc1-c1ccc(C(=O)Nc2ccc(CN3CCS(=O)(=O)CC3)cc2)cc1 [Example 167, 5′-(Cyclopentanecarbonyl-amino)-2′-methyl-biphenyl-4-carboxylic acid [4-(1,1-dioxo-1lambda*6*-thiomorpholin-4-ylmethyl)-phenyl]-amide]	< 1	* (* < 50 μM)
O=C(Nc1ccc(CN2CCS(=O)(=O)CC2)cc1)c1ccc(-c2cccc(NC(=O)C3CC3)c2)cc1 [Example 168, 3′-(Cyclopropanecarbonyl-amino)-biphenyl-4-carboxylic acid [4-(1,1-dioxo-1lambda*6*-thiomorpholin-4-ylmethyl)-phenyl]-amide]	< 1	* (* < 50 μM)
O=C(Nc1ccc(CN2CCS(=O)(=O)CC2)cc1)c1ccc(-c2cccc(NC(=O)C3CCC3)c2)cc1 [Example 169, 3′-(Cyclobutanecarbonyl-amino)-biphenyl-4-carboxylic acid [4-(1,1-dioxo-1lambda*6*-thiomorpholin-4-ylmethyl)-phenyl]-amide]	< 1	* (* < 50 μM)
Cc1ccc(NC(=O)C2CCOCC2)cc1-c1ccc(C(=O)Nc2ccc(CN3CCS(=O)(=O)CC3)cc2)cc1 [Example 170, Tetrahydro-pyran-4-carboxylic acid {4′-[4-(1,1-dioxo-1lambda*6*-thiomorpholin-4-ylmethyl)-phenylcarbamoyl]-6-methyl-biphenyl-3-yl}-amide]	< 1	* (* < 50 μM)
Cc1ccc(NC(=O)CC2CCOCC2)cc1-c1ccc(C(=O)Nc2ccc(CN3CCS(=O)(=O)CC3)cc2)cc1 [Example 171, 2′-Methyl-5′-(2-tetrahydro-pyran-4-yl-acetylamino)-biphenyl-4-carboxylic acid [4-(1,1-dioxo-1lambda*6*-thiomorpholin-4-ylmethyl)-phenyl]-amide]	< 1	* (* < 50 μM)
Cc1ccc(-c2ccc(C(=O)Nc3ccc(CN4CCS(=O)(=O)CC4)cc3)cc2C)cc1NC(=O)C1CC1 [Example 172, 3′-(Cyclopropanecarbonyl-amino)-2,4′-dimethyl-biphenyl-4-carboxylic acid [4-(1,1-dioxo-1lambda*6*-thiomorpholin-4-ylmethyl)-phenyl]-amide]	1 to 5	* (* < 50 μM)
Cc1ccc(NC(=O)C2(C(F)(F)F)CC2)cc1-c1ccc(C(=O)Nc2ccc(CN3CCS(=O)(=O)CC3)cc2)cc1 [Example 173, 2′-Methyl-5′-[(1-trifluoromethyl-cyclopropanecarbonyl)-amino]-biphenyl-4-carboxylic acid [4-(1,1-dioxo-1lambda*6*-thiomorpholin-4-ylmethyl)-phenyl]-amide]	1 to 5	* (* < 50 μM)
Cc1ccc(NC(=O)C2(C#N)CC2)cc1-c1ccc(C(=O)Nc2ccc(CN3CCS(=O)(=O)CC3)cc2)cc1 [Example 174, 5′-[(1-Cyano-cyclopropanecarbonyl)-amino]-2′-methyl-biphenyl-4-carboxylic acid [4-(1,1-dioxo-1lambda*6*-thiomorpholin-4-ylmethyl)-phenyl]-amide]	1 to 5	* (* < 50 μM)
Cc1ccc(NC(=O)C2(C)CC2)cc1-c1ccc(C(=O)Nc2ccc(CN3CCS(=O)(=O)CC3)cc2)cc1 [Example 175, 2′-Methyl-5′-[(1-methyl-cyclopropanecarbonyl)-amino]-biphenyl-4-carboxylic acid [4-(1,1-dioxo-1lambda*6*-thiomorpholin-4-ylmethyl)-phenyl]-amide]	< 1	* (* < 50 μM)
Cc1ccc(NC(=O)c2cscn2)cc1-c1ccc(C(=O)Nc2ccc(CN3CCS(=O)(=O)CC3)cc2)cc1 [Example 177, Thiazole-4-carboxylic acid {4′-[4-(1,1-dioxo-1lambda*6*-thiomorpholin-4-ylmethyl)-phenylcarbamoyl]-6-methyl-biphenyl-3-yl}-amide]	1 to 5	* (* < 50 μM)
